According to patent US11369602B2, “Use of tadalafil as protein arginine methyltransferase (PRMT5) inhibitor” (Fourth Mil. Med. Univ. of People's Lib. Army, priority 2019, dated 2022):
One block for each compound: values may come before it.

Tests used:
[1] = molecular target: T1, PRMT5 (PRMT5/MEP50 purified protein) (Homo sapiens, UniProt O14744); assay: SPR affinity analysis (Biacore T200); format: binding
T1 construct: purchased abcam ab198151
Protocol: Analysis of affinity of Tadalafil for target protein (PRMT5) was carried out using Biacore T200 analysis platform and SPR technology. Tadalafil was obtained from MCE corporation with catalog no: HY-9 0009A (50 mg). PRMT5/MEP50 purified protein was obtained from abcam corporation with catalog no: ab198151 (20 μg). Tadalafil was diluted to a series of concentrations in sequence of: 0.78, 1.56, 3.125, 6.25, 12.5, 25, 50 and 100 (μM).

MDA-MB-231 tumor = assay: MDA-MB-231 xenograft tumor growth in immunodeficient mice; format: in vivo; conditions: Tadalafil oral gavage 2 mg/kg once a day; Doxorubicin tail vein 2 mg/kg once a week; 25 days (FIG. 6)
Protocol: Immunodeficient mice were seeded with MDA-MB-231 cells respectively. When tumor volumes reached 50-100 mm3, mice were given treatment selected from the following: PBS (Control, Ctrl), Tadalafil, Doxorubicin (DOX), Tadalafil in combination with Doxorubicin (DOX+Tadalafil). Tadalafil was administered by oral gavage (2 mg/kg, once a day) while Doxorubicin was administered by mouse tail vein injection (2 mg/kg, once a week). Body weights of mice and tumor volumes were measured every day for 25 days.

tumor = assay: Later functional experiment (tumor inhibitory effect)

T1 sequence (O14744 whole entry): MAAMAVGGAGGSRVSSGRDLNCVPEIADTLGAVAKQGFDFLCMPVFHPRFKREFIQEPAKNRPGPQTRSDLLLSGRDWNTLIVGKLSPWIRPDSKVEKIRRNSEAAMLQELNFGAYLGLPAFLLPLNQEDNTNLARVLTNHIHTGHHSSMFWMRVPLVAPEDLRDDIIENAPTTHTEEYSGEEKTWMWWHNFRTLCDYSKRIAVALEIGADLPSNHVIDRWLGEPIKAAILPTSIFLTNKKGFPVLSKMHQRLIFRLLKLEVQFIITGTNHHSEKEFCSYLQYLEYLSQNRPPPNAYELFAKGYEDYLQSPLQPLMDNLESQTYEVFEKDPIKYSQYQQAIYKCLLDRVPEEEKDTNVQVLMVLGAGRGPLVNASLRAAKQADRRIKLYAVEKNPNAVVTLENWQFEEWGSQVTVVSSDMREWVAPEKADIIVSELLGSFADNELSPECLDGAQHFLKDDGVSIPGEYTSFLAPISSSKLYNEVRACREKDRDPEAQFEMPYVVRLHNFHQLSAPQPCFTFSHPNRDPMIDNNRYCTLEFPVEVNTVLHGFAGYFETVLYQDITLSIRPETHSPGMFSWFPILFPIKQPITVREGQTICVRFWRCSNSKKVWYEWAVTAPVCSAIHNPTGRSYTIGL
T1 sequence (Q9BQA1 whole entry partner): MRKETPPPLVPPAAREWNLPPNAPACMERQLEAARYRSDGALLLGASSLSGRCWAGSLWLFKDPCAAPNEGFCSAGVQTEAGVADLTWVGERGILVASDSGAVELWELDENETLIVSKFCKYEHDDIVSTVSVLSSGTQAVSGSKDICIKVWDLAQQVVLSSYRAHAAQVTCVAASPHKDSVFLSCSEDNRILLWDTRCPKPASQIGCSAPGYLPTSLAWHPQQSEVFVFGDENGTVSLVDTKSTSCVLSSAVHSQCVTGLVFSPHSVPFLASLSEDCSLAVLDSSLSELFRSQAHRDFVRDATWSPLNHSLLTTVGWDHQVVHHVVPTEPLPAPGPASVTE

- Kd ([1]; SPR, Biacore T200, Tadalafil 0.78-100 μM): 22.7 ± 9.6 µM
SMILES: CN1CC(=O)N2[C@H](c3ccc4c(c3)OCO4)c3[nH]c4ccccc4c3C[C@@H]2C1=O [Tadalafil]

SMILES: COc1cccc2c1C(=O)c1c(O)c3c(c(O)c1C2=O)C[C@@](O)(C(=O)CO)C[C@@H]3O[C@H]1C[C@H](N)[C@H](O)[C@H](C)O1 [Doxorubicin]
- mouse tumor volume / tumor growth (MDA-MB-231 tumor): inhibited tumor growth

- binding ability to PRMT5 ([1]; SPR experiment): lower binding ability to PRMT5
SMILES: O=C(O)c1cc(/N=N/c2ccc(S(=O)(=O)Nc3ccccn3)cc2)ccc1O [Sulfasalazine]
- tumor inhibitory effect (tumor): relatively weak tumor inhibitory effect
